Experimental data as given in patent publication US6492137B1, “Response element compositions and assays employing same” (The Salk Institute for Biological Studies, priority 1989, dated 2002).

Each substance was assayed against T1, TRβ (Homo sapiens, UniProt P10828) (assay: ΔSV-CAT reporter cotransfection assay in CV-1 cells with TRβ expression plasmid, ±T3). Conditions: TRβ expression vector.
T1 sequence (P10828 1-461): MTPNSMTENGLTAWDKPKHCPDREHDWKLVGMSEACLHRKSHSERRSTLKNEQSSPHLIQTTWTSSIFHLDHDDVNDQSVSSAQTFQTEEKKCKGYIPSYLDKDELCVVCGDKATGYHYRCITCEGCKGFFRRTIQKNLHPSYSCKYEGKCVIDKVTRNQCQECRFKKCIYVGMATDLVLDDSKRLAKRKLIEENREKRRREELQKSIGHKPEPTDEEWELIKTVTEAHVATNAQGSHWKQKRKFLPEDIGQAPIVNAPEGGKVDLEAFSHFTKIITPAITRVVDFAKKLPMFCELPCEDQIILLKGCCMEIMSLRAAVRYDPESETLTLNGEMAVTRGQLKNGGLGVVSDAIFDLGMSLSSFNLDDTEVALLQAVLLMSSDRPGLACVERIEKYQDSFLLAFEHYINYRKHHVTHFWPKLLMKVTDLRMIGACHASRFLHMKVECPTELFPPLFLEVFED
Assay type: cell-based
Set-up: expressed in transfected cells; host or cells: CV-1 (monkey kidney)
Text: Receptor expression plasmids used in the following cotransfection assays have been described previously (pRShTRβ [see Thompson, et al., Proc. Natl. Acad. Sci. U.S.A. 86: 3494-3498 (1989)]; pRShRARα [see Giguere, et al., Nature 330: 624-629 (1987)]; pRShRARβ and pRshRARγ [see Ishikawa, et al., Mol. Endocrinol, 4: 837-844 (1990)]; and pRShVDR, [Schule, et al., Cell 61: 497-504 (1990)]. A basal reporter plasmid ΔSV-CAT was constructed by replacing the TK promoter in TK-CAT [Damm, et al., Nature 339: 593-597 (1989)] with the SphI-HindIII fragment of the SV40 early promoter. All of the recombinant CAT reporter plasmids used herein harbor a single copy of the indicated oligonucleotides at the unique HindIII site upstream of the SV40 promoter. […] To improve production of receptor proteins in COS cells, a new eukaryotic expression vector pCMX was prepared by modifying the plasmid CDM8 [Seed, B., Nature 329: 840-842 (1987)]. The CDM8 was cut with MluI and StuI in order to release the DNA fragment encoding the CMV/T7 promoter, SV40 small t intron/poly A signal, polyoma virus enhancer/origin, and SV40 enhancer/origin. The resulting fragment was ligated to a larger fragment of PvuII-digested PUC19. An internal deletion was introduced between unique BamHI and BclI sites present in the DCM8 portion. The stuffer sequence flanked by XbaI sites was replaced with a synthetic polylinker coding for 5′-KpnI/Asp718-EcoRV-BamHI -MscI-NheI-3′, followed by a stretch of 5′-[…]-3′ (SEQ ID NO:48) which can function as a universal termination signal for protein translation. The coding sequence of the luciferase [de Wet, et al., Mol. Cell. Biol. 7: 725-737 (1987)] and human TRβ, RARα, and VDR was placed in the polylinker region of the pCMX, generating pCMX-LUC, Pcmx-Htrβ, pCMX-hRARα, and pCMX-hVDR, respectively. The translation start site of the RARα was modified to […] by attaching the synthetic linker encoding a consensus translation start signal [Hollenberg, et al., Cell 55: 899-906 (1988)].
For cotransfection assays, a monkey kidney cell line CV-1 was kept in Dulbecco's modified Eagle's medium (DMEM) supplemented with 10% charcoal-resin double split calf bovine serum. Transfections were performed via calcium-phosphate precipitation method as described by Umesono, et al. in Cell 57: 1139-1146 (1989), with 0.5 μg of a pRS receptor expression plasmid, 1.0 μg of a reporter CAT plasmid, 5 μg of pRAS-βGAL [Umesono, et al., Cell 57: 1139-1146 (1989)] as an internal control, and 8.5 μg of carrier plasmid pUC19. The cells were transfected for 8 hours; after washing the DNA precipitates, the cells were then incubated for an additional 36 hours with or without the ligand (T3, 100 nM; RA, 1 μM; 1,25-(OH)2 vitamin D3, 100 nM). Cell extracts were prepared for βGAL and CAT assays, as described by Umesono, et al., supra. Transfection of F9 teratocarcinoma cells was carried out employing a similar method except the cells were incubated for 12 hours in the presence of the DNA precipitates, and the RA was added at 1 μM for another 24 hours before harvesting the cells. 2, 5, and 4 μg of the reporter, pRAS-βGAL, and pUC19 were used, respectively.
Target hormone response elements described in FIG. 3 were synthesized as double-stranded oligonucleotides with an overhanging tetranucleotide (5′-agct-3′) at both ends. A single copy of these oligonucleotides was cloned at the unique HindIII site present in the basal promoter CAT construct ΔSV-CAT. Capitalized portions in the nucleotide sequences correspond to those found in the natural promoters except TREp and rGH21, which are synthetic. Bold letters indicate the “AGGTCA” motif and “X” denotes a nucleotide substitution from this motif.

Row | Substance | T3 responsiveness (in words)
1 | GDR-3: identical to DR-3 except half-site changed to AGAACA, a GRE half-site (SEQ ID NO:26) (AGCTTCAGAACAAGGAGAACAGAGAGCT; DNA, backbone not given here; double-stranded DNA response element with agct overhangs, cloned into reporter) | completely inactive
2 | TREp: optimized palindromic rat growth hormone TRE (SEQ ID NO:10) (AGCTTCAGGTCATGACCTGAGAGCT; DNA, backbone not given here; double-stranded response element with agct overhangs, cloned into reporter plasmid) [reference compound] | responsive to T3
3 | GDR-4: identical to DR-4 except half-site changed to AGAACA, a GRE half-site (SEQ ID NO:28) (AGCTTCAGAACACAGGAGAACAGAGAGCT; DNA, backbone not given here; double-stranded DNA response element with agct overhangs, cloned into reporter) | completely inactive
